From patent US12090149B2, “SMAD3 inhibitors” (Moexa Pharmaceuticals Limited, priority 2018, dated 2024)
“And” between values parts separate entries of the source, which are not always exact repeats. Identical values can stand only once. “Also recorded” adds a separate entry of the source.

Legend:
B16-F10 syngeneic model [1] = experiment: Subcutaneous B16-F10 syngeneic model, tumor growth; format: in vivo, C57BL/6 mice
Method: In order to evaluate the in vivo efficacy of SIS3 and novel compounds of the present invention, a study has been conducted in treatment of the subcutaneous B16-F10 syngeneic models.
• Animal species and strain: C57BL/6 mice • History of treatment: Naive • Sex, age and weight: Female, 6-8 weeks • Breeder/supplier: Shanghai SLAC Laboratory Animal Co. Ltd • Adaptation: At least 7 days • Room: SPF Room • Room temperature: 20-26° C. • Room relative humidity: 40-70% • Light cycle: Fluorescent light for 12-hour light (08:00-20:00) and 12-hour dark • Animal hosting: 2-5 mice/cage each group • Food: Free access to food • Water: Free access to water (municipal tap water filtered by reverse osmosis or high-pressure sterilizer)
B16-F10 cell was maintained at 37° C. under 5% CO2 in DMEM medium supplemented with 10% FBS and were subsequently cultured within 10 passages before inoculated into the mice.
B16-F10 cells (3×10^5 in 100 μL of serum-free medium) were inoculated to each of C57BL/6 mice via s.c. under anesthesia by 3-4% isoflurane. Each group contains 15 mice.
When average tumor volume reached 35-60 mm^3, 15 mice were randomized into group 6. The day of inoculation was denoted as day 0.
Tumor dimensions were measured on Day 4, 5, 6, 8, 11, 13, 15 and 18, after inoculation in 2 dimensions with calipers.
When required, tumor volume was measured daily. The tumor volume (V) was calculated as follows: V=(length×width^2)/2.
The individual relative tumor volume (RTV) was calculated as follows: RTV=Vt/V0, where Vt was the volume on each day, and V0 was the volume at the beginning of the treatment.
Tumor growth inhibition (TGI), TGI=(1−(Ti−T0)/(Ci−C0))×100%; Ti and Ci as the mean tumor volumes of the treatment and control groups on the measurement day; T0 and C0 as the mean tumor volumes of the treatment and control groups on day 0
Results were expressed as mean±S.E.M. Comparisons between two groups were made by Dunnett's multi-comparison test, p<0.05 were considered as significant.

[2] = Aqueous solubility assay (shake-flask, LC/MS/MS); format: physicochemical; details: 25° C., 24 hours, SIS3 hydrochloride salt, MO-00005 free base
Method: Poorly soluble compounds can dramatically reduce productivity in drug discovery and development. Solubility assays involve assessment of kinetic solubility (from DMSO stock solution) using a shake-flask technique in a plate format and LC/MS/MS analysis.
• Analytical Column: YMC ODS-AM S-3 120A, 3×50 mm column with Guard. • Flow Rate: 500 ul/min • Mobil Phase: Isocratic 50% acetonitrile: 50% 20 mM Ammonium Acetate pH 4. Back Pressure: 1400 psi • Column Temperature: Ambient, • Autosampler Setting: Injection Volume: 5 ul, Loop Volume: 100 ul, Tray Temperature: 4° C. • Needle wash: Vial position 100. Needle wash solution: 50% Methanol water
• Component Mass Molarity • Sodium bicarbonate (mw: 84 g/mol) 0.11628 g 0.0461 M • Sodium carbonate (anhydrous) (mw: 106 g/mol) 0.17127 g 0.0539 M • Tris Buffer pH 7.7 (100 mL) • Add 0.363 g of tris to 30 mL water. Check pH at room temperature the pH should be 7.7 with acetic acid. • Acetate Buffer pH 3.6 (30 mL) • Component Mass Molarity • Sodium Acetate (anhydrous) (mw: 82 g/mol) 0.01188 g 0.0048 M • Acetic Acid (mw: 60.05 g/mol) 0.17145 g 0.0952 M (0.17145 g=[…])
Then run all samples at this dilution. • (xi) Run samples in duplicate and estimate aqueous solubility.
As such, it may be expected that the hydrochloride salt will have better solubility in unbuffered aqueous solutions. There the thermodynamic equilibrium dissolution concentrations of both compounds were determined also in buffered solutions at pH 4, 7.7, and 10.4 in addition to unbuffered water.

CYP2C9 = biological target: T1, CYP2C9 (Homo sapiens, UniProt P11712); experiment: Cytochrome P450 inhibition assay, human liver microsomes, CYP2C9; format: in vitro ADME; details: 10 uM
T1 construct: CONSTRUCT DETAILS: Microsomes; from tissue; host or cells: human liver microsomes
Description: • SUBSTRATE: Diclofenac

CYP2D6 = biological target: T2, CYP2D6 (Homo sapiens, UniProt P10635); experiment: Cytochrome P450 inhibition assay, human liver microsomes, CYP2D6; format: in vitro ADME; details: 10 uM
T2 construct: CONSTRUCT DETAILS: Microsomes; from tissue; host or cells: human liver microsomes

B16-F10 syngeneic model [3] = experiment: Subcutaneous B16-F10 syngeneic model, tumor growth; format: in vivo, C57BL/6 mice; details: 30 mg/kg q.d. * 3W i.p.
[4] = Aqueous solubility assay (shake-flask, LC/MS/MS); format: physicochemical; details: pH 10.63 buffer, 25° C., 24 hours; SIS3 hydrochloride salt, MO-00005 free base
CYP3A4 = CYP3A4 (Homo sapiens, UniProt P08684); experiment: Cytochrome P450 inhibition assay, human liver microsomes, CYP3A4; details: 10 uM
[5] = single agent, i.p. QD*3 weeks, SIS3 10 and 30 mg/kg, MO-00005 10, 30 and 100 mg/kg, vs vehicle

Chain of CYP3A4 (P08684 whole entry): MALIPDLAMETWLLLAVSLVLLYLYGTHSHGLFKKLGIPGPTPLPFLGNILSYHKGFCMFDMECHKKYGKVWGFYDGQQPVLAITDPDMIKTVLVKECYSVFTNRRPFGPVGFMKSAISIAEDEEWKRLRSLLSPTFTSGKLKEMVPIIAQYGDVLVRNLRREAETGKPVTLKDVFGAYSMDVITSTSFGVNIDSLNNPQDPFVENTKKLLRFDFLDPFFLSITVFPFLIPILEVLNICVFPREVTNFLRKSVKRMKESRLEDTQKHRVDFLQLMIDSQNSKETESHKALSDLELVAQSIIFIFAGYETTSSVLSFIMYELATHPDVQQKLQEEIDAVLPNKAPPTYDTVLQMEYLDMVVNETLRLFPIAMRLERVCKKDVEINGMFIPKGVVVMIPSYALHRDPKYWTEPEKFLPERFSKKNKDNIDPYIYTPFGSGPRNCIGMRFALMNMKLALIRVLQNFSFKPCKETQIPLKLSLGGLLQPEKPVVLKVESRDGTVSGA
T1 sequence (P11712 whole entry): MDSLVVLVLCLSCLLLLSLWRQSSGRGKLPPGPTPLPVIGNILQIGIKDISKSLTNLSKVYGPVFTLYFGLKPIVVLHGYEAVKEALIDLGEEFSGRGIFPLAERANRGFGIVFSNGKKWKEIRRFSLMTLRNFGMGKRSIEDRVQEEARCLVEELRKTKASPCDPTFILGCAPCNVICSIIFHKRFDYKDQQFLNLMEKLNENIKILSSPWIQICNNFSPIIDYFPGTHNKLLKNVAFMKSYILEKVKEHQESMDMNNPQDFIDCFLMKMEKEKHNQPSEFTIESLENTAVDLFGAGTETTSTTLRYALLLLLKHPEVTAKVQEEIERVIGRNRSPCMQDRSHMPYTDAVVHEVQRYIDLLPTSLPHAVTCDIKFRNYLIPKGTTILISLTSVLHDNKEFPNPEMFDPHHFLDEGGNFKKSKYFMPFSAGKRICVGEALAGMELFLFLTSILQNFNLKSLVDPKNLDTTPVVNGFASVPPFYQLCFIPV
T2 sequence (P10635 whole entry): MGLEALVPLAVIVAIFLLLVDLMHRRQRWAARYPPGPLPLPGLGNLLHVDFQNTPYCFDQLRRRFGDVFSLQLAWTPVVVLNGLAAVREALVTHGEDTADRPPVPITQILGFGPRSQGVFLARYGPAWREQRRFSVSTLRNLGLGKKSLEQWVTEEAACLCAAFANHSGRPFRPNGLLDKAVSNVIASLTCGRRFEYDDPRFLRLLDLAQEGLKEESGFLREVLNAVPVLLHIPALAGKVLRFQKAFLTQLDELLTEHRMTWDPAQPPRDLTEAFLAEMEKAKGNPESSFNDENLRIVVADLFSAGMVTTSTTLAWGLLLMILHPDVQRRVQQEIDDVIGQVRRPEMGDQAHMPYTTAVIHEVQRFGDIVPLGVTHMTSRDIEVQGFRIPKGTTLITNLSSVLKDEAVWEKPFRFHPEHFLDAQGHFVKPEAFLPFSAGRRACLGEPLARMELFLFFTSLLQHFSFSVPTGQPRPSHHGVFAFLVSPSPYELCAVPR

COc1cc2c(cc1OC)CN(C(=O)/C=C/c1c(-c3ccccc3)n(C)c3ncccc13)CC2.Cl [SIS3, reference compound]
Tumor Sizes (mm3) Mean (B16-F10 syngeneic model [1]; 10 mg/kg q.d. * 3W i.p., Day 4 (estimated value)): 0.87 mm3
Relative tumor volume Mean (B16-F10 syngeneic model [1]; 10 mg/kg q.d. * 3W i.p., Day 4, RTV=Vt/V0): 0.04
Tumor Sizes (mm3) Mean (B16-F10 syngeneic model [1]; 10 mg/kg q.d. * 3W i.p., Day 5 (estimated value)): 1.10 mm3 and 1.1 mm3
Relative tumor volume Mean (B16-F10 syngeneic model [1]; 10 mg/kg q.d. * 3W i.p., Day 5, RTV=Vt/V0): 0.05
Tumor Sizes (mm3) Mean (B16-F10 syngeneic model [1]; 10 mg/kg q.d. * 3W i.p., Day 6 (estimated value)): 3.36 mm3
Relative tumor volume Mean (B16-F10 syngeneic model [1]; 10 mg/kg q.d. * 3W i.p., Day 6, RTV=Vt/V0): 0.12
Tumor Sizes (mm3) Mean (B16-F10 syngeneic model [1]; 10 mg/kg q.d. * 3W i.p., Day 8): 43.65 mm3
Relative tumor volume Mean (B16-F10 syngeneic model [1]; 10 mg/kg q.d. * 3W i.p., Day 8, RTV=Vt/V0): 1.00
Tumor Sizes (mm3) Mean (B16-F10 syngeneic model [1]; 10 mg/kg q.d. * 3W i.p., Day 11): 156.77 mm3
Relative tumor volume Mean (B16-F10 syngeneic model [1]; 10 mg/kg q.d. * 3W i.p., Day 11, RTV=Vt/V0): 4.07
Tumor growth inhibition (%) TGI (B16-F10 syngeneic model [1]; 10 mg/kg q.d. * 3W i.p., Day 11, calculated based on tumor volume of Day 8): 29%
Tumor Sizes (mm3) Mean (B16-F10 syngeneic model [1]; 10 mg/kg q.d. * 3W i.p., Day 13): 443.17 mm3
Relative tumor volume Mean (B16-F10 syngeneic model [1]; 10 mg/kg q.d. * 3W i.p., Day 13, RTV=Vt/V0): 12.20
Tumor growth inhibition (%) TGI (B16-F10 syngeneic model [1]; 10 mg/kg q.d. * 3W i.p., Day 13, calculated based on tumor volume of Day 8): 26%
Tumor Sizes (mm3) Mean (B16-F10 syngeneic model [1]; 10 mg/kg q.d. * 3W i.p., Day 15): 793.01 mm3
Relative tumor volume Mean (B16-F10 syngeneic model [1]; 10 mg/kg q.d. * 3W i.p., Day 15, RTV=Vt/V0): 22.19
Tumor growth inhibition (%) TGI (B16-F10 syngeneic model [1]; 10 mg/kg q.d. * 3W i.p., Day 15, calculated based on tumor volume of Day 8): 25%
Tumor Sizes (mm3) Mean (B16-F10 syngeneic model [1]; 10 mg/kg q.d. * 3W i.p., Day 18): 2209.13 mm3
Relative tumor volume Mean (B16-F10 syngeneic model [1]; 10 mg/kg q.d. * 3W i.p., Day 18, RTV=Vt/V0): 62.21
Tumor growth inhibition (%) TGI (B16-F10 syngeneic model [1]; 10 mg/kg q.d. * 3W i.p., Day 18, calculated based on tumor volume of Day 8): 21%
Tumor Sizes (mm3) Mean (B16-F10 syngeneic model [1]; 30 mg/kg q.d. * 3W i.p., Day 4 (estimated value)): 0.28 mm3
Relative tumor volume Mean (B16-F10 syngeneic model [1]; 30 mg/kg q.d. * 3W i.p., Day 4, RTV=Vt/V0): 0.01
Tumor Sizes (mm3) Mean (B16-F10 syngeneic model [1]; 30 mg/kg q.d. * 3W i.p., Day 5 (estimated value)): 0.46 mm3
Relative tumor volume Mean (B16-F10 syngeneic model [1]; 30 mg/kg q.d. * 3W i.p., Day 5, RTV=Vt/V0): 0.01
Tumor Sizes (mm3) Mean (B16-F10 syngeneic model [1]; 30 mg/kg q.d. * 3W i.p., Day 6 (estimated value)): 3.44 mm3
Relative tumor volume Mean (B16-F10 syngeneic model [1]; 30 mg/kg q.d. * 3W i.p., Day 6, RTV=Vt/V0): 0.12
Tumor Sizes (mm3) Mean (B16-F10 syngeneic model [1]; 30 mg/kg q.d. * 3W i.p., Day 8): 49.16 mm3
Relative tumor volume Mean (B16-F10 syngeneic model [1]; 30 mg/kg q.d. * 3W i.p., Day 8, RTV=Vt/V0): 1.00
Tumor Sizes (mm3) Mean (B16-F10 syngeneic model [1]; 30 mg/kg q.d. * 3W i.p., Day 11): 163.60 mm3 and 163.6 mm3
Relative tumor volume Mean (B16-F10 syngeneic model [1]; 30 mg/kg q.d. * 3W i.p., Day 11, RTV=Vt/V0): 3.98
Tumor growth inhibition (%) TGI (B16-F10 syngeneic model [1]; 30 mg/kg q.d. * 3W i.p., Day 11, calculated based on tumor volume of Day 8): 28%
Tumor Sizes (mm3) Mean (B16-F10 syngeneic model [1]; 30 mg/kg q.d. * 3W i.p., Day 13): 379.84 mm3
Relative tumor volume Mean (B16-F10 syngeneic model [1]; 30 mg/kg q.d. * 3W i.p., Day 13, RTV=Vt/V0): 9.22
Tumor Sizes (mm3) Mean (B16-F10 syngeneic model [1]; 30 mg/kg q.d. * 3W i.p., Day 15): 786.37 mm3
Relative tumor volume Mean (B16-F10 syngeneic model [1]; 30 mg/kg q.d. * 3W i.p., Day 15, RTV=Vt/V0): 23.71
Tumor Sizes (mm3) Mean (B16-F10 syngeneic model [1]; 30 mg/kg q.d. * 3W i.p., Day 18): 2131.42 mm3
Relative tumor volume Mean (B16-F10 syngeneic model [1]; 30 mg/kg q.d. * 3W i.p., Day 18, RTV=Vt/V0): 70.14
anti-tumor activity against the B16-F10 syngeneic model (in words) (B16-F10 syngeneic model [1]; [5]): anti-tumor response; also recorded: significant anti-tumor activity
efficacy on tumor weight (in words) (B16-F10 syngeneic model [1]; [5]): significant efficacy on tumor weight
Conc. Of Sample (ug/mL), aqueous solubility ([2]; pH 4.03 buffer): 17.2 µg/mL
Conc. Of Sample (ug/mL), aqueous solubility ([2]; pH 7.70 buffer): 7.0 µg/mL
Conc. Of Sample (ug/mL), aqueous solubility ([2]; unbuffered water): 17.7 µg/mL
CYP2C9 inhibition (HLM, diclofenac substrate) Inhibition (%) (CYP2C9): 79.7661%
CYP2D6 inhibition (HLM, dextromethorphan substrate) Inhibition (%) (CYP2D6): 19.1641%
Tumor growth inhibition (%) TGI (B16-F10 syngeneic model [3]; Day 13, calculated based on tumor volume of Day 8): 39%
Tumor growth inhibition (%) TGI (B16-F10 syngeneic model [3]; Day 15, calculated based on tumor volume of Day 8): 27%
Tumor growth inhibition (%) TGI (B16-F10 syngeneic model [3]; Day 18, calculated based on tumor volume of Day 8): 25%
Conc. Of Sample (ug/mL), aqueous solubility [4]: 2.4 µg/mL
CYP3A inhibition (HLM, midazolam substrate) Inhibition (%) (CYP3A4; midazolam substrate): 20.5499%
CYP3A inhibition (HLM, testosterone substrate) Inhibition (%) (CYP3A4; testosterone substrate): 9.294%
